Experiments:
SUR1/Kir6.2^Q52R channel = target: T1, SUR1/Kir6.2^Q52R channel (UniProt P70673+Q09427, Q52R); assay: ATP inhibition, inside-out patch-clamp recording, COSm6 cells; type: biochemical, rat Kir6.2, hamster SUR1; conditions: for % current: mean, relative to maximum current in K-INT
T1 construct: expressed in transfected cells; host or cells: COSm6
Description: (§1) For electrophysiology experiments, COSm6 cells were co-transfected with various combination of WT or mutant SUR1 and Kir6.2 cDNAs (SUR1 in pECE and Kir6.2 in pCDNA3) along with the cDNA for the Green Fluorescent Protein (to facilitate identification of transfected cells) using FuGENE® 6 (Promega). Mutant SUR1 and Kir6.2 were constructed using QuikChange (mutagenesis primers are shown in Supplementary Table 2). Cells were plated onto glass coverslips 24 h after transfection and recordings made in the following two days. All experiments were performed at room temperature. Micropipettes were pulled from non-heparinized Kimble glass (Fisher Scientific) on a horizontal puller (Sutter Instrument). Electrode resistance was typically 1-2 MΩ when filled with K-INT solution containing 140 mM KCl, 10 mM K-HEPES, 1 mM K-EGTA, 1 mM EDTA, pH 7.3. ATP was added as the potassium salt. Inside-out patches of cells bathed in K-INT were voltage-clamped with an Axopatch 1D amplifier (Axon Instruments). ATP or porcine brain PIP2 (Avanti Polar Lipids; prepared in K-INT and bath sonicated in ice water for 30 min before use) were added to K-INT as specified in the figure legend. All currents were measured at a membrane potential of −50 mV (pipette voltage = +50 mV). Data were analyzed using pCLAMP10 software (Axon Instrument). Off-line analysis was performed using Clampfit and GraphPad. Data were presented as mean ± standard error of the mean (S.E.M). ATP inhibition dose-response curves were obtained by fitting data to the Hill equation (Irel = 1/(1 + ([ATP]/IC50)^H)), where Irel is the current relative to the maximum currents in K-INT solution (expressed as % current in Fig. 7c and Supplementary Fig. 7a), IC50 is the ATP concentration that causes half-maximal inhibition, and H is the Hill coefficient. Note H was allowed to vary for the curves shown in Fig. 7c and Supplementary Fig. 7a.

[1] = target: T2, SUR1/Kir6.2^Q52R/R176A channel (UniProt P70673+Q09427, Q52R/R176A); assay: as above; type: biochemical, rat Kir6.2, hamster SUR1; conditions: for % current: mean, relative to maximum current in K-INT
T2 construct: expressed in transfected cells; host or cells: COSm6
Description: as §1

[2] = target: T3, SUR1/Kir6.2^R176A channel (UniProt P70673+Q09427, R176A); assay: as above; type: biochemical, rat Kir6.2, hamster SUR1; conditions: for % current: mean, relative to maximum current in K-INT
T3 construct: expressed in transfected cells; host or cells: COSm6
Description: as §1

[3] = target: T4, SUR1^K134A/Kir6.2 channel (UniProt P70673+Q09427, K134A); assay: as above; type: biochemical, rat Kir6.2, hamster SUR1; conditions: for % current: mean, relative to maximum current in K-INT
T4 construct: expressed in transfected cells; host or cells: COSm6
Description: as §1

[4] = target: T5, SUR1^K134A/Kir6.2^Q52R channel (UniProt P70673+Q09427, K134A/Q52R); assay: as above; type: biochemical, rat Kir6.2, hamster SUR1; conditions: for % current: mean, relative to maximum current in K-INT
T5 construct: expressed in transfected cells; host or cells: COSm6
Description: as §1

[5] = target: T6, SUR1^K134A/Kir6.2^Q52R/R176A channel (UniProt P70673+Q09427, K134A/Q52R/R176A); assay: as above; type: biochemical, rat Kir6.2, hamster SUR1; conditions: for % current: relative to maximum current in K-INT
T6 construct: expressed in transfected cells; host or cells: COSm6
Description: as §1

SUR1^W51C/Kir6.2 channel = target: T7, SUR1^W51C/Kir6.2 channel (UniProt P70673+Q09427, W51C); assay: as above; type: biochemical, rat Kir6.2, hamster SUR1; conditions: for % current: mean, relative to maximum current in K-INT
T7 construct: expressed in transfected cells; host or cells: COSm6
Description: as §1

[6] = target: T8, SUR1^W51C/Kir6.2^Q52R channel (UniProt P70673+Q09427, Q52R/W51C); assay: as above; type: biochemical, rat Kir6.2, hamster SUR1; conditions: for % current: mean, relative to maximum current in K-INT
T8 construct: expressed in transfected cells; host or cells: COSm6
Description: as §1

[7] = target: T9, WT (SUR1/Kir6.2) KATP channels (UniProt P70673+Q09427); assay: as above; type: biochemical, rat Kir6.2, hamster SUR1; conditions: for % current: mean, relative to maximum current in K-INT
T9 construct: expressed in transfected cells; host or cells: COSm6
Description: as §1

Kir6.2^Q52R KATP channel = system: Kir6.2^Q52R KATP channel; design: method as in PMID 16123353, PMID 15583126; conditions: Kir6.2^Q52R relative to WT; cited from earlier work
[8] = system: KATP channel with engineered Kir6.2-Q52/SUR1-E203 charged amino acid pair; design: method as in PMID 22802363; conditions: engineered charged amino acid pair enforcing Kir6.2-Q52 and SUR1-E203 interaction; cited from earlier work
[9] = mean ± SEM, Hill fit, −50 mV, K-INT

T5 sequence (P70673 whole entry Q52R): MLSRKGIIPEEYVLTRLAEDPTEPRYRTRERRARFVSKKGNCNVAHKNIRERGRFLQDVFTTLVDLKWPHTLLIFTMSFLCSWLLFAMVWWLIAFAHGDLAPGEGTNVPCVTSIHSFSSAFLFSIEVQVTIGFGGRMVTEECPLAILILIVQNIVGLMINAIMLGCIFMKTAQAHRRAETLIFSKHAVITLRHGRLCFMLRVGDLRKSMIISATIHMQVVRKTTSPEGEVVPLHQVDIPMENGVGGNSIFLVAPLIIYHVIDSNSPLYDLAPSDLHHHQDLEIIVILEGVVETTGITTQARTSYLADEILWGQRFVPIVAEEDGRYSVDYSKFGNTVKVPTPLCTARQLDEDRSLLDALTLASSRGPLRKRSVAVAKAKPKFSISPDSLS
T5 sequence (Q09427 whole entry K134A): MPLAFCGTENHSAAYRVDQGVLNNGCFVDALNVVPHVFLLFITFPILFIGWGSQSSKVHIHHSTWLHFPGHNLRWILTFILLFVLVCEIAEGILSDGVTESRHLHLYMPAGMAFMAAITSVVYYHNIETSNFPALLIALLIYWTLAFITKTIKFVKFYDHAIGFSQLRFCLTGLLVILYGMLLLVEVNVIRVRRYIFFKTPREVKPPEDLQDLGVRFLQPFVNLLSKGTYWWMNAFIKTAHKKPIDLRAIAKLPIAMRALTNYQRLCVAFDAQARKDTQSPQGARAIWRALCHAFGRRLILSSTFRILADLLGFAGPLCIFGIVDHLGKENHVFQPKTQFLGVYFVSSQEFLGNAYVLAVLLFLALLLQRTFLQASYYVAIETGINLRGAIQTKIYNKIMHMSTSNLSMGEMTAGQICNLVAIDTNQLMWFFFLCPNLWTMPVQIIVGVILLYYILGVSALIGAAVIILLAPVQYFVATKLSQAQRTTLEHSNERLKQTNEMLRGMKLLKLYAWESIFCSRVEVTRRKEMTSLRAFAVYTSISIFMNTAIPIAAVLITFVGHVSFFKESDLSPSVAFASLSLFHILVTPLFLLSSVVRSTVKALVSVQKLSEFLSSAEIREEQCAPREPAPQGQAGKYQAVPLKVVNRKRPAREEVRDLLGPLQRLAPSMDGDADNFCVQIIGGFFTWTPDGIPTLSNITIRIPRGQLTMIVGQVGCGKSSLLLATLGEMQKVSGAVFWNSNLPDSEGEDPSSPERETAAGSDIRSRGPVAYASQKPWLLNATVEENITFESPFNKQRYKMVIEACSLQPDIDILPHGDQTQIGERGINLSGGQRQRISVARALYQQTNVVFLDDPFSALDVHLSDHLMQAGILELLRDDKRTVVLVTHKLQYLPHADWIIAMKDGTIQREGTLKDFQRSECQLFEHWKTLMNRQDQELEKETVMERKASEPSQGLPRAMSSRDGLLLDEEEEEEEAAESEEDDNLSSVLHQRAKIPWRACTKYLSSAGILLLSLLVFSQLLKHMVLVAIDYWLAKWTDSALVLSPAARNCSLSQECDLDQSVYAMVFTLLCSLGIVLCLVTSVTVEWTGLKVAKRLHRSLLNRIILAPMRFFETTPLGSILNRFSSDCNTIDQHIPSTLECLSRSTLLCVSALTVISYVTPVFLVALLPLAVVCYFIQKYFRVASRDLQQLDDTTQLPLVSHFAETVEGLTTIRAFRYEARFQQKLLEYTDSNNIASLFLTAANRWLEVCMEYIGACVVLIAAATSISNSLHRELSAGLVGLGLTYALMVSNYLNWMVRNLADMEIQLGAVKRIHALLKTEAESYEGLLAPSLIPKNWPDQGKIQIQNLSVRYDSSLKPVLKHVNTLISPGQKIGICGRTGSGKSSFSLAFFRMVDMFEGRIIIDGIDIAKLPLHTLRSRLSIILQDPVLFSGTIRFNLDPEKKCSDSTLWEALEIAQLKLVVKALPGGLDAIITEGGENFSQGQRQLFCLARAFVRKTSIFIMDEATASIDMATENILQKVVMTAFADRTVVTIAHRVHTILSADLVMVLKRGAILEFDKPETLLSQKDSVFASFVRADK
T8 sequence (P70673 whole entry Q52R): as the sequence (P70673 whole entry Q52R) above
T8 sequence (Q09427 whole entry W51C): as the sequence (Q09427 whole entry K134A) above, with W51C, A134K counted along it
T1 sequence (P70673 whole entry Q52R): as the sequence (P70673 whole entry Q52R) above
T1 sequence (Q09427 whole entry): as the sequence (Q09427 whole entry K134A) above, with A134K counted along it
T2 sequence (Q09427 whole entry): as the sequence (Q09427 whole entry K134A) above, with A134K counted along it
T2 sequence (P70673 whole entry Q52R/R176A): as the sequence (P70673 whole entry Q52R) above, with R176A counted along it
T3 sequence (Q09427 whole entry): as the sequence (Q09427 whole entry K134A) above, with A134K counted along it
T3 sequence (P70673 whole entry R176A): as the sequence (P70673 whole entry Q52R) above, with R52Q, R176A counted along it
T6 sequence (Q09427 whole entry K134A): as the sequence (Q09427 whole entry K134A) above
T6 sequence (P70673 whole entry Q52R/R176A): as the sequence (P70673 whole entry Q52R) above, with R176A counted along it
T4 sequence (Q09427 whole entry K134A): as the sequence (Q09427 whole entry K134A) above
T4 sequence (P70673 whole entry): as the sequence (P70673 whole entry Q52R) above, with R52Q counted along it
T9 sequence (P70673 whole entry): as the sequence (P70673 whole entry Q52R) above, with R52Q counted along it
T9 sequence (Q09427 whole entry): as the sequence (Q09427 whole entry K134A) above, with A134K counted along it
T7 sequence (P70673 whole entry): as the sequence (P70673 whole entry Q52R) above, with R52Q counted along it
T7 sequence (Q09427 whole entry W51C): as the sequence (Q09427 whole entry K134A) above, with W51C, A134K counted along it

With `Nc1ncnc2c1ncn2[C@@H]1O[C@H](COP(=O)(O)OP(=O)(O)OP(=O)(O)O)[C@@H](O)[C@H]1O` [ATP] the “% current” value (SUR1/Kir6.2^Q52R channel; ATP 10 μM) was 94.34%, the “% current” value (SUR1/Kir6.2^Q52R channel; ATP 100 μM) was 77.97% and the “% current” value (SUR1/Kir6.2^Q52R channel; ATP 200 μM) was 34.77%. The “% current” value (SUR1/Kir6.2^Q52R channel; ATP 1 mM) was 15.08%, the “% current” value (SUR1/Kir6.2^Q52R channel; ATP 2 mM) was 2.12% and the “% current” value (SUR1/Kir6.2^Q52R channel; ATP 5 mM) was 2.88%. For the same molecule, the “Hill coefficient (H) of ATP inhibition” value (SUR1/Kir6.2^Q52R channel; Hill fit, H allowed to vary) was 2.34, the IC50 (SUR1/Kir6.2^Q52R channel; [9]) was 161 ± 16.2 µM and the “% current” value ([1]; ATP 1 μM) was 93.65%. For the same molecule, the “% current” value ([1]; ATP 10 μM) was 70.34%, the “% current” value ([1]; ATP 100 μM) was 6.88% and the “% current” value ([1]; ATP 200 μM) was 3.51%. For the same molecule, the “% current” value ([1]; ATP 1 mM) was 0.92%, the “% current” value ([1]; ATP 2 mM) was 0.12% and the “Hill coefficient (H) of ATP inhibition” value ([1]; Hill fit, H allowed to vary) was 1.41. The IC50 [1, 9] was 18 ± 1.2 µM, the “% current” value ([2]; ATP 1 μM) was 83.45% and the “% current” value ([2]; ATP 10 μM) was 56.97%. The “% current” value ([2]; ATP 100 μM) was 7.94%, the “% current” value ([2]; ATP 1 mM) was 6.02% and the “% current” value ([2]; ATP 2 mM) was 1.48%. The “Hill coefficient (H) of ATP inhibition” value ([2]; Hill fit, H allowed to vary) was 0.84, the IC50 [2, 9] was 11.3 ± 1.95 µM and the “% current” value ([3]; ATP 1 μM) was 90.28%. For the same molecule, the “% current” value ([3]; ATP 10 μM) was 19.80%, the “% current” value ([3]; ATP 100 μM) was 5.33% and the “% current” value ([3]; ATP 200 μM) was 0.84%. The “% current” value ([3]; ATP 1 mM) was 0.93%, the “% current” value ([3]; ATP 2 mM) was 0.25% and the “Hill coefficient (H) of ATP inhibition” value ([3]; Hill fit, H allowed to vary) was 1.54. The IC50 [3, 9] was 4.12 ± 0.3 µM, the “% current” value ([4]; ATP 1 μM) was 98.42% and the “% current” value ([4]; ATP 10 μM) was 90.13%. For the same molecule, the “% current” value ([4]; ATP 100 μM) was 32.09%, the “% current” value ([4]; ATP 200 μM) was 5.40% and the “% current” value ([4]; ATP 1 mM) was 0.80%. The “% current” value ([4]; ATP 5 mM) was 0.06%, the “Hill coefficient (H) of ATP inhibition” value ([4]; Hill fit, H allowed to vary) was 1.55 and the IC50 [4, 9] was 54.1 ± 7.14 µM. The “% current” value ([5]; ATP 1 μM, one cell) was 40.58%, the “% current” value ([5]; ATP 10 μM, mean) was 44.57% and the “% current” value ([5]; ATP 100 μM, mean) was 4.58%. For the same molecule, the “% current” value ([5]; ATP 1 mM, mean) was -0.08%, the “% current” value ([5]; ATP 5 mM, mean) was 0.00% and the “Hill coefficient (H) of ATP inhibition” value ([5]; Hill fit, H allowed to vary) was 1.18. The IC50 [5, 9] was 8.3 ± 1.11 µM, the “% current” value (SUR1^W51C/Kir6.2 channel; ATP 1 μM) was 94.89% and the “% current” value (SUR1^W51C/Kir6.2 channel; ATP 10 μM) was 75.92%. For the same molecule, the “% current” value (SUR1^W51C/Kir6.2 channel; ATP 100 μM) was 6.20%, the “% current” value (SUR1^W51C/Kir6.2 channel; ATP 200 μM) was 6.36% and the “% current” value (SUR1^W51C/Kir6.2 channel; ATP 1 mM) was 1.93%. For the same molecule, the “% current” value (SUR1^W51C/Kir6.2 channel; ATP 2 mM) was 3.08%, the “% current” value (SUR1^W51C/Kir6.2 channel; ATP 5 mM) was 0% and the IC50 (SUR1^W51C/Kir6.2 channel; [9]) was 20.9 ± 1.96 µM. The “% current” value ([6]; ATP 1 μM) was 97.59%, the “% current” value ([6]; ATP 10 μM) was 45.50% and the “% current” value ([6]; ATP 100 μM) was 6.41%. The “% current” value ([6]; ATP 1 mM) was 1.99%, the “% current” value ([6]; ATP 2 mM) was 0.62% and the “% current” value ([6]; ATP 5 mM) was 1.82%. For the same molecule, the IC50 [6, 9] was 8.98 ± 0.49 µM, the “% current” value ([7]; ATP 1 μM) was 84.78% and the “% current” value ([7]; ATP 10 μM) was 39.13%. For the same molecule, the “% current” value ([7]; ATP 100 μM) was 7.09%, the “% current” value ([7]; ATP 200 μM) was 3.13% and the “% current” value ([7]; ATP 1 mM) was 4.17%. For the same molecule, the “% current” value ([7]; ATP 2 mM) was 0.65%, the “% current” value ([7]; ATP 5 mM) was 2.98% and the “Hill coefficient (H) of ATP inhibition” value ([7]; Hill fit, H allowed to vary) was 0.93. For the same molecule, the IC50 [7, 9] was 6.25 ± 0.44 µM, the “decrease in channel sensitivity to ATP inhibition” value (Kir6.2^Q52R KATP channel) was 20 fold and the “reduction of ATP inhibition IC50” value [8] was 100 fold.

From paper PMC10954709, “Structure of an open KATP channel reveals tandem PIP2 binding sites mediating the Kir6.2 and SUR1 regulatory interface” (Nature Communications, 2024)
